Patent US9247741B2, “Use of macrocyclic picolinamides as fungicides” (DOW AGROSCIENCES LLC, priority 2013, dated 2016)
Read-outs that look alike come from different tables or passages of the source.

Key:
[1] = test system: Mycosphaerella graminicola; Anamorph: Septoria tritici; assay: Leaf blotch of wheat (SEPTTR) disease control on wheat seedlings; type: in vivo; conditions: Zymoseptoria tritici; for pest or weed control at 121.5 g/ha: 121.5 g/H (low volume track spray)
Method: Evaluation of Fungicidal Activity: Leaf Blotch of Wheat (Mycosphaerella graminicola; Anamorph: Septoria tritici; Bayer Code […]) Technical grades of materials were dissolved in acetone, which were then mixed with nine volumes of water containing 110 ppm Triton X-100. The fungicide solutions were applied onto wheat seedlings using an automated booth sprayer to run-off. All sprayed plants were allowed to air dry prior to further handling. All fungicides were evaluated using the aforementioned method for their activity vs. all target diseases. Wheat leaf blotch and brown rust activity were also evaluated using track spray applications, in which case the fungicides were formulated as EC formulations, containing 0.1% Trycol 5941 in the spray solutions. Wheat plants (variety Yuma) were grown from seed in a greenhouse in 50% mineral soil/50% soil-less Metro mix until the first leaf was fully emerged, with 7-10 seedlings per pot. These plants were inoculated with an aqueous spore suspension of Septoria tritici either prior to or after fungicide treatments. After inoculation the plants were kept in 100% relative humidity (one day in a dark dew chamber followed by two to three days in a lighted dew chamber at 20° C.) to permit spores to germinate and infect the leaf. The plants were then transferred to a greenhouse set at 20° C. for disease to develop. When disease symptoms were fully expressed on the l^st leaves of untreated plants, infection levels were assessed on a scale of 0 to 100 percent disease severity. Percent disease control was calculated using the ratio of disease severity on treated plants relative to untreated plants.

Puccinia triticina = assay: Wheat brown rust (PUCCRT) disease control on wheat seedlings; type: in vivo; conditions: for pest or weed control at 121.5 g/ha: 121.5 g/H (low volume track spray); for pest or weed control at 100 ppm: 100 ppm (high volume)
Method: Technical grades of materials were dissolved in acetone, which were then mixed with nine volumes of water containing 110 ppm Triton X-100. The fungicide solutions were applied onto wheat seedlings using an automated booth sprayer to run-off. All sprayed plants were allowed to air dry prior to further handling. All fungicides were evaluated using the aforementioned method for their activity vs. all target diseases. Wheat leaf blotch and brown rust activity were also evaluated using track spray applications, in which case the fungicides were formulated as EC formulations, containing 0.1% Trycol 5941 in the spray solutions. Wheat plants (variety Yuma) were grown from seed in a greenhouse in 50% mineral soil/50% soil-less Metro mix until the first leaf was fully emerged, with 7-10 seedlings per pot. These plants were inoculated with an aqueous spore suspension of Septoria tritici either prior to or after fungicide treatments. After inoculation the plants were kept in 100% relative humidity (one day in a dark dew chamber followed by two to three days in a lighted dew chamber at 20° C.) to permit spores to germinate and infect the leaf. The plants were then transferred to a greenhouse set at 20° C. for disease to develop. When disease symptoms were fully expressed on the l^st leaves of untreated plants, infection levels were assessed on a scale of 0 to 100 percent disease severity. Percent disease control was calculated using the ratio of disease severity on treated plants relative to untreated plants. Evaluation of Fungicidal Activity: Wheat Brown Rust (Puccinia triticina; Synonym: Puccinia recondite f sp. tritici; Bayer code PUCCRT) Wheat plants (variety Yuma) were grown from seed in a greenhouse in 50% mineral soil/50% soil-less Metro mix until the first leaf was fully emerged, with 7-10 seedlings per pot. These plants were inoculated with an aqueous spore suspension of Puccinia triticina either prior to or after fungicide treatments. After inoculation the plants were kept in a dark dew room at 22° C. with 100% relative humidity overnight to permit spores to germinate and infect the leaf. The plants were then transferred to a greenhouse set at 24° C. for disease to develop. Fungicide formulation, application and disease assessment followed the procedures as described in the Example A.

[2] = 24 h, 1 Day Protectant, wheat, read-out: SEPTTR 1DP disease control rating
[3] = 72 h, 3 Day Curative, wheat, read-out: SEPTTR 3DC disease control rating
[4] = 24 h, 1 Day Protectant, read-out: PUCCRT 1DP disease control rating
[5] = 72 h, 3 Day Curative, read-out: PUCCRT 3DC disease control rating
[6] = 24 h, 1 Day Protectant, 100 ppm (high volume), wheat, read-out: SEPTTR 1DP disease control rating
[7] = 72 h, 3 Day Curative, 100 ppm (high volume), wheat, read-out: SEPTTR 3DC disease control rating

Row | melting point [°C] | Structure (SMILES) | pest or weed control at 100 ppm [1, 6] [%] | pest or weed control at 100 ppm [1, 7] [%] | pest or weed control at 100 ppm (Puccinia triticina; [4]) [%] | pest or weed control at 100 ppm (Puccinia triticina; [5]) [%] | also measured
1 | 58 to 62 | COc1ccnc(C(=O)N[C@H]2CCC[C@H](OCc3ccccc3)[C@@H](CCC(C)C)[C@H](C)OC2=O)c1OC(C)=O [Compound 17] | – | – | – | – | pest or weed control at 121.5 g/ha [1, 2]: > 70%; pest or weed control at 121.5 g/ha [1, 3]: > 70%; pest or weed control at 121.5 g/ha (Puccinia triticina; [4]): > 70%; pest or weed control at 121.5 g/ha (Puccinia triticina; [5]): > 70%
2 | 223 to 224 | CCCC[C@H]1[C@H](C)OC(=O)[C@@H](N)CCC[C@@H]1OCC1CC1.Cl | – | – | – | – | –
3 | 55 to 60 | COc1ccnc(C(=O)N[C@H]2CCC[C@H](Oc3ccccc3)[C@@H](CCC(C)C)[C@H](C)OC2=O)c1O [Compound 8] | > 70 | > 70 | > 70 | > 70 | –
4 | 59 to 64 | CCCO[C@H]1CCC[C@H](NC(=O)c2nccc(OC)c2O)C(=O)O[C@@H](C)[C@@H]1Cc1ccccc1 [Compound 49] | > 70 | > 70 | > 70 | > 70 | –
5 | 97 to 100 | CC(C)CC[C@H]1[C@H](C)OC(=O)[C@@H](NC(=O)OC(C)(C)C)CCC[C@@H]1OCc1ccccc1 [Compound 51] | – | – | – | – | –
6 | – | CCCC[C@H]1[C@H](C)OC(=O)[C@@H](NC(=O)c2nccc(OC)c2O)CCC[C@@H]1OCCCC(F)(F)F [Compound 13] | > 70 | < 70 | > 70 | < 70 | –
7 | – | COc1ccnc(C(=O)N[C@H]2CCC[C@H](Oc3ccc(C)cc3)[C@@H](Cc3ccc(F)cc3)[C@H](C)OC2=O)c1OC(C)=O [Compound 21] | – | – | – | – | pest or weed control at 121.5 g/ha [1, 2]: > 70%; pest or weed control at 121.5 g/ha [1, 3]: < 70%; pest or weed control at 121.5 g/ha (Puccinia triticina; [4]): > 70%; pest or weed control at 121.5 g/ha (Puccinia triticina; [5]): < 70%
8 | 68 to 71 | COc1ccnc(C(=O)N[C@H]2CCC[C@H](Oc3ccc(C)cc3)[C@@H](Cc3ccccc3)[C@H](C)OC2=O)c1O [Compound 60] | > 70 | > 70 | > 70 | > 70 | –
9 | 196 to 198 | CCCC[C@H]1[C@H](C)OC(=O)[C@@H](N)CCC[C@@H]1OCCCC(F)(F)F.Cl | – | – | – | – | –
10 | – | CCCC[C@H]1[C@H](C)OC(=O)[C@@H](NC(=O)c2nccc(OC)c2OCOC(=O)COCC)CCC[C@@H]1OC(=O)C(C)C [Compound 71, (2S,3S,4S,8S)-3-butyl-8-(3-((2-ethoxyacetoxyl)methoxy)-4-methoxypicolinamido)-2-methyl-9-oxooxonan-4-yl isobutyrate] | – | – | – | – | pest or weed control at 121.5 g/ha [1, 2]: > 70%; pest or weed control at 121.5 g/ha [1, 3]: > 70%; pest or weed control at 121.5 g/ha (Puccinia triticina; [4]): > 70%; pest or weed control at 121.5 g/ha (Puccinia triticina; [5]): > 70%

Row | Structure (SMILES) | melting point [°C] | pest or weed control at 100 ppm [1, 6] [%] | pest or weed control at 100 ppm [1, 7] [%] | pest or weed control at 100 ppm (Puccinia triticina; [4]) [%] | pest or weed control at 100 ppm (Puccinia triticina; [5]) [%] | also measured
11 | CCCO[C@H]1CCC[C@H](NC(=O)c2nccc(OC)c2O)C(=O)O[C@@H](C)[C@@H]1CCC(C)C [Compound 31, 3-hydroxy-N-((3S,7S,8S,9S)-8-isopentyl-9-methyl-2-oxo-7-propoxyoxonan-3-yl)-4-methoxypicolinamide] | 45 to 49 | – | – | > 70 | < 70 | pest or weed control at 100 ppm ([1]; 24 h, read-out: SEPTTR 1DP disease control rating): < 70%; pest or weed control at 100 ppm ([1]; 72 h, read-out: SEPTTR 3DC disease control rating): < 70%
